# Reference: patent US20070059385A1, “Safe pharmaceutical composition for treating and preventing cancer and method of use” (priority 2005, published 2007)
# Columns and labels:
# [1] = Metabolism (organ and blood radioactivity) of [^3H]-HHT in P388 mice; type: in vivo; details: P388 mice, [^3H]-HHT 1 mg/kg
# Protocol: Animals: Adult DBA/2J male mice, 6 to 8 weeks old. All animals weighed approximately 25 g when used in experiments. Each member of which received identical dosed (i.p.) of HHT.
# Tumor: P388 leukemic cells induced in mice by inoculation with L1210 or P388 leukemic cells ([…]).
# After P388 induced in mice 5 days, 1 mg/kg of [^3H]-HHT (100 μC/mg) was injected to mice. Volumes were 0.01 ml/g body weight. […] The key data of HHT in metabolism process are determined counts per minute (CPM) of [^3H]-HHT in organs. CPM is determined by liquid scintillation counting (LSC). The methods of LSC combined with radioactive of [^3H]-HHT can be determined using a tracer of HHT in organs. After killed animals, organs and blood were obtained from P388 mice. Organs were weighted. 10 mg of organs were digested. 10 ml of scintillation solution (which containing […]) were added to digested solution and determined at LSC. Other processes are similar to the standard method.
# [2] = test system: HL-60 cells; assay: Induction of differentiation (NBT reduction) of human leukemic cells; type: cell-based; details: Mu, GU, MAT, IND 50 ng/ml, higher NBT (%) means higher normal cells
# Protocol: HL-60 cells were established from a patient with acute myeloid leukemia. The cells were cultured in culture flasks with RPMI plus 10% FCS.
# Differentiation of HL-60 cells was assessed by their abilities to produced superoxide as measured by reduction of NBT, by NSE staining and by morphology as detected on cytospin preparations stained with Diff-Quick stain Set, and by analysis of membrane-bound differentiation markers with two-color immunofluorescence. Briefly, cells were preincubated at 4° C. for 60 min in 10% human AB serum and then with FITC-conjugated mouse IgGI isotype control. Analysis of fluorescence was performed on a flow cytometer.
# HL-60 cells were culture in a two-layer soft agar system for 10 days without adding any growth factors as described previously, and colonies were counted using an inverted microscope. The analogues were added to the agar upper layer on day 0. For analysis of the reversibility of inhibition of proliferation, the cells were cultured in suspension culture with and without HHT or other drugs. After 60 hours, the culture flasks were gently jarred to loosen adherent cells, the cells were washed twice in cultured medium containing 10% FCS to remove the test drugs, and then the clonogenic assay was performed. NBT% indicated percentage of normal cells.
# [3] = test system: TA97; assay: Salmonella mutagenicity assay TA97
# Protocol: (§1) The method for detecting mutagenicity of HHT, with the Salmonella system that detects the reversion of the bacteria from His^− to His^+, is widely used.
# (§2) The bacterial tester strains used for mutagenesis testing are TA97, TA98, TA100 and TA102. Mutagenesis testing method was done as described previously ^[77-88]. In brief, TA97, TA98, TA100 and TA102 were grown in agar gel culture. The petri plats (100×15 mm style) contain 30 ml with 2% glucose. The agar mixture was agitated vigorously and immediately poured into plates of minimal agar. The cultures were incubated at 37° C. in a dark and 5% CO2 in air for 48 hours. After 48 hours the colonies in both test and controls are counted. The presence of a background lawn of bacteria on the histidine-poor soft agar plate was used as an indication that gross toxic effects were absent. Mutagenicity assays were carried out at least in triplicate.
# (§3) The range of spontaneous mutation rates for the individual strains, which were considered to be acceptable, was TA97 (100-170), TA98 (20-40) and TA100 (80-150).
# [4] = test system: TA100; assay: Salmonella mutagenicity assay TA100
# Protocol: as §1, §2, §3
smiles,measurement,setting,value
"COC(=O)C[C@](O)(CCCC(C)(C)O)C(=O)O[C@@H]1C(OC)=C[C@]23CCCN2CCc2cc4c(cc2[C@H]13)OCO4 [HHT, Homoharringtonine]","CMP/mg organ, Bone",[1]; 1 hour,500 CMP/mg organ
same,"CMP/mg organ, Brain",[1]; 1 hour,499 CMP/mg organ
same,"CMP/mg organ, Contents of intestine",[1]; 1 hour,3323 CMP/mg organ
same,"CMP/mg organ, Contents of stomach",[1]; 1 hour,6821 CMP/mg organ
same,"CMP/mg organ, Heart",[1]; 1 hour,1403 CMP/mg organ
same,"CMP/mg organ, Intestine",[1]; 1 hour,1638 CMP/mg organ
same,"CMP/mg organ, Kidney",[1]; 1 hour,6501 CMP/mg organ
same,"CMP/mg organ, Liver",[1]; 1 hour,4145 CMP/mg organ
same,"CMP/mg organ, Lung",[1]; 1 hour,2100 CMP/mg organ
same,"CMP/mg organ, Spleen",[1]; 1 hour,2828 CMP/mg organ
same,"CMP/mg organ, Stomach",[1]; 1 hour,1626 CMP/mg organ
same,"CMP/mg organ, Bone",[1]; 3 hours,560 CMP/mg organ
same,"CMP/mg organ, Brain",[1]; 3 hours,646 CMP/mg organ
same,"CMP/mg organ, Contents of intestine",[1]; 3 hours,7215 CMP/mg organ
same,"CMP/mg organ, Contents of stomach",[1]; 3 hours,84375 CMP/mg organ
same,"CMP/mg organ, Heart",[1]; 3 hours,1800 CMP/mg organ
same,"CMP/mg organ, Intestine",[1]; 3 hours,3288 CMP/mg organ
same,"CMP/mg organ, Kidney",[1]; 3 hours,3121 CMP/mg organ
same,"CMP/mg organ, Liver",[1]; 3 hours,6718 CMP/mg organ
same,"CMP/mg organ, Lung",[1]; 3 hours,2427 CMP/mg organ
same,"CMP/mg organ, Spleen",[1]; 3 hours,2426 CMP/mg organ
same,"CMP/mg organ, Stomach",[1]; 3 hours,2321 CMP/mg organ
same,"CMP/mg organ, Bone",[1]; 6 hours,505 CMP/mg organ
same,"CMP/mg organ, Brain",[1]; 6 hours,793 CMP/mg organ
same,"CMP/mg organ, Contents of intestine",[1]; 6 hours,6250 CMP/mg organ
same,"CMP/mg organ, Contents of stomach",[1]; 6 hours,100719 CMP/mg organ
same,"CMP/mg organ, Heart",[1]; 6 hours,1193 CMP/mg organ
same,"CMP/mg organ, Intestine",[1]; 6 hours,2475 CMP/mg organ
same,"CMP/mg organ, Kidney",[1]; 6 hours,3501 CMP/mg organ
same,"CMP/mg organ, Liver",[1]; 6 hours,4109 CMP/mg organ
same,"CMP/mg organ, Lung",[1]; 6 hours,1788 CMP/mg organ
same,"CMP/mg organ, Spleen",[1]; 6 hours,2198 CMP/mg organ
same,"CMP/mg organ, Stomach",[1]; 6 hours,3703 CMP/mg organ
same,"CMP/mg organ, Bone",[1]; 24 hours,480 CMP/mg organ
same,"CMP/mg organ, Brain",[1]; 24 hours,986 CMP/mg organ
same,"CMP/mg organ, Contents of intestine",[1]; 24 hours,5009 CMP/mg organ
same,"CMP/mg organ, Contents of stomach",[1]; 24 hours,117914 CMP/mg organ
same,"CMP/mg organ, Heart",[1]; 24 hours,893 CMP/mg organ
same,"CMP/mg organ, Intestine",[1]; 24 hours,1067 CMP/mg organ
same,"CMP/mg organ, Kidney",[1]; 24 hours,1065 CMP/mg organ
same,"CMP/mg organ, Liver",[1]; 24 hours,2175 CMP/mg organ
same,"CMP/mg organ, Lung",[1]; 24 hours,1312 CMP/mg organ
same,"CMP/mg organ, Spleen",[1]; 24 hours,2156 CMP/mg organ
same,"CMP/mg organ, Stomach",[1]; 24 hours,1823 CMP/mg organ
same,NBT (%),[2],65 ± 7.0 %
same,Number of His^+ revertants/plate,"[3]; TA97 +S, 0.1 μg/plate",145 ± 14 revertants/plate
same,Number of His^+ revertants/plate,"[3]; TA97 +S, 1 μg/plate",150 ± 14 revertants/plate
same,Number of His^+ revertants/plate,"[3]; TA97 +S, 10 μg/plate",165 ± 16 revertants/plate
same,Number of His^+ revertants/plate,"[3]; TA97 +S, 100 μg/plate",160 ± 17 revertants/plate
same,Number of His^+ revertants/plate,"[3]; TA97 −S, 0.1 μg/plate",120 ± 10 revertants/plate
same,Number of His^+ revertants/plate,"[3]; TA97 −S, 1 μg/plate",130 ± 11 revertants/plate
same,Number of His^+ revertants/plate,"[3]; TA97 −S, 10 μg/plate",160 ± 16 revertants/plate
same,Number of His^+ revertants/plate,"[3]; TA97 −S, 100 μg/plate",150 ± 16 revertants/plate
same,Number of His^+ revertants/plate,"[4]; TA100 +S, 0.1 μg/plate",158 revertants/plate
same,Number of His^+ revertants/plate,"[4]; TA100 +S, 1 μg/plate",152 revertants/plate
same,Number of His^+ revertants/plate,"[4]; TA100 +S, 10 μg/plate",165 revertants/plate
same,Number of His^+ revertants/plate,"[4]; TA100 +S, 100 μg/plate",160 revertants/plate
same,Number of His^+ revertants/plate,"[4]; TA100 −S, 0.1 μg/plate",148 ± 12 revertants/plate
same,Number of His^+ revertants/plate,"[4]; TA100 −S, 1 μg/plate",140 ± 13 revertants/plate
same,Number of His^+ revertants/plate,"[4]; TA100 −S, 10 μg/plate",162 ± 17 revertants/plate
same,Number of His^+ revertants/plate,"[4]; TA100 −S, 100 μg/plate",158 ± 15 revertants/plate
